Laboratory results published in the NIST ThermoML archive (doi:10.1021/je0602824).

Test: xn = mol fraction of the nth substance listed
Settings: 101 kPa, Liquid

CCn1cc[n+](C)c1.O=S(=O)([O-])C(F)(F)F [1-ethyl-3-methylimidazolium trifluoromethanesulfonate] + O
Settings	mass density [kg/m3]	viscosity [mPa·s]
278.15 K, x2 = 0	1400.52	96
278.15 K, x2 = 0.2286	–	47
278.15 K, x2 = 0.2295	1388.3	–
278.15 K, x2 = 0.431	1372.38	–
278.15 K, x2 = 0.4324	–	28
278.15 K, x2 = 0.6157	1347.34	–
278.15 K, x2 = 0.6159	–	18
278.15 K, x2 = 0.7825	1299.91	–
278.15 K, x2 = 0.783	–	10
278.15 K, x2 = 0.8608	1254.76	–
278.15 K, x2 = 0.9352	–	5
278.15 K, x2 = 0.9353	1171.9	–
278.15 K, x2 = 0.9712	1097.49	–
278.15 K, x2 = 0.9924	1030.35	–
288.15 K, x2 = 0	1392.04	61
288.15 K, x2 = 0.2286	–	32
288.15 K, x2 = 0.2295	1379.81	–
288.15 K, x2 = 0.431	1363.87	–
288.15 K, x2 = 0.4324	–	20
288.15 K, x2 = 0.6157	1338.87	–
288.15 K, x2 = 0.6159	–	13
288.15 K, x2 = 0.7825	1291.74	–
288.15 K, x2 = 0.783	–	7
288.15 K, x2 = 0.8608	1247.16	–
288.15 K, x2 = 0.9352	–	4
288.15 K, x2 = 0.9353	1165.97	–
288.15 K, x2 = 0.9712	1093.64	–
288.15 K, x2 = 0.9924	1028.64	–
298.15 K, x2 = 0	1383.6	41
298.15 K, x2 = 0.2286	–	23
298.15 K, x2 = 0.2295	1371.36	–
298.15 K, x2 = 0.431	1355.39	–
298.15 K, x2 = 0.4324	–	15
298.15 K, x2 = 0.6157	1330.37	–
298.15 K, x2 = 0.6159	–	10
298.15 K, x2 = 0.7825	1283.47	–
298.15 K, x2 = 0.783	–	6
298.15 K, x2 = 0.8608	1239.38	–
298.15 K, x2 = 0.9352	–	3
298.15 K, x2 = 0.9353	1159.65	–
298.15 K, x2 = 0.9712	1089.08	–
298.15 K, x2 = 0.9924	1025.88	–
308.15 K, x2 = 0	1375.22	29
308.15 K, x2 = 0.2286	–	17
308.15 K, x2 = 0.2295	1362.95	–
308.15 K, x2 = 0.431	1346.93	–
308.15 K, x2 = 0.4324	–	12
308.15 K, x2 = 0.6157	1321.86	–
308.15 K, x2 = 0.6159	–	8
308.15 K, x2 = 0.7825	1275.1	–
308.15 K, x2 = 0.783	–	5
308.15 K, x2 = 0.8608	1231.42	–
308.15 K, x2 = 0.9352	–	3
308.15 K, x2 = 0.9353	1152.94	–
308.15 K, x2 = 0.9712	1083.9	–
308.15 K, x2 = 0.9924	1022.24	–
318.15 K, x2 = 0	1366.9	21
318.15 K, x2 = 0.2286	–	13
318.15 K, x2 = 0.2295	1354.59	–
318.15 K, x2 = 0.431	1338.49	–
318.15 K, x2 = 0.4324	–	10
318.15 K, x2 = 0.6157	1313.33	–
318.15 K, x2 = 0.6159	–	7
318.15 K, x2 = 0.7825	1266.62	–
318.15 K, x2 = 0.783	–	4
318.15 K, x2 = 0.8608	1223.27	–
318.15 K, x2 = 0.9352	–	3
318.15 K, x2 = 0.9353	1145.88	–
318.15 K, x2 = 0.9712	1078.18	–
318.15 K, x2 = 0.9924	1017.86	–
328.15 K, x2 = 0	1358.63	16
328.15 K, x2 = 0.2286	–	10
328.15 K, x2 = 0.2295	1346.27	–
328.15 K, x2 = 0.431	1330.07	–
328.15 K, x2 = 0.4324	–	8
328.15 K, x2 = 0.6157	1304.78	–
328.15 K, x2 = 0.6159	–	6
328.15 K, x2 = 0.7825	1258.04	–
328.15 K, x2 = 0.783	–	4
328.15 K, x2 = 0.8608	1214.94	–
328.15 K, x2 = 0.9352	–	3
328.15 K, x2 = 0.9353	1138.49	–
328.15 K, x2 = 0.9712	1071.95	–
328.15 K, x2 = 0.9924	1012.83	–
338.15 K, x2 = 0	1350.43	13
338.15 K, x2 = 0.2286	–	9
338.15 K, x2 = 0.2295	1338.01	–
338.15 K, x2 = 0.431	1321.68	–
338.15 K, x2 = 0.4324	–	7
338.15 K, x2 = 0.6157	1296.19	–
338.15 K, x2 = 0.6159	–	5
338.15 K, x2 = 0.7825	1249.35	–
338.15 K, x2 = 0.783	–	4
338.15 K, x2 = 0.8608	1206.43	–
338.15 K, x2 = 0.9352	–	2
338.15 K, x2 = 0.9353	1130.76	–
338.15 K, x2 = 0.9712	1065.25	–
338.15 K, x2 = 0.9924	1007.21	–
348.15 K, x2 = 0	1342.3	11
348.15 K, x2 = 0.2286	–	7
348.15 K, x2 = 0.2295	1329.77	–
348.15 K, x2 = 0.431	1313.29	–
348.15 K, x2 = 0.4324	–	6
348.15 K, x2 = 0.6157	1287.58	–
348.15 K, x2 = 0.6159	–	5
348.15 K, x2 = 0.7825	1240.55	–
348.15 K, x2 = 0.783	–	3
348.15 K, x2 = 0.8608	1197.74	–
348.15 K, x2 = 0.9352	–	2
348.15 K, x2 = 0.9353	1122.73	–
348.15 K, x2 = 0.9712	1058.13	–
348.15 K, x2 = 0.9924	1001.05	–

CCn1cc[n+](C)c1.O=C([O-])C(F)(F)F [1-ethyl-3-methylimidazolium trifluoroacetate] + O
Settings	mass density [kg/m3]	viscosity [mPa·s]
278.15 K, x2 = 0	1306.89	78
278.15 K, x2 = 0.2042	–	56
278.15 K, x2 = 0.205	1299.84	–
278.15 K, x2 = 0.3952	–	40
278.15 K, x2 = 0.3983	1291.27	–
278.15 K, x2 = 0.5808	1278	25
278.15 K, x2 = 0.7565	–	16
278.15 K, x2 = 0.7573	1248.38	–
278.15 K, x2 = 0.842	1216.87	–
278.15 K, x2 = 0.9256	1151.47	6
278.15 K, x2 = 0.9667	1086.88	–
278.15 K, x2 = 0.9912	1026.68	–
288.15 K, x2 = 0	1298.81	48
288.15 K, x2 = 0.2042	–	35
288.15 K, x2 = 0.205	1291.82	–
288.15 K, x2 = 0.3952	–	26
288.15 K, x2 = 0.3983	1283.25	–
288.15 K, x2 = 0.5808	1269.93	17
288.15 K, x2 = 0.7565	–	11
288.15 K, x2 = 0.7573	1240.21	–
288.15 K, x2 = 0.842	1208.86	–
288.15 K, x2 = 0.9256	1144.67	5
288.15 K, x2 = 0.9667	1082.51	–
288.15 K, x2 = 0.9912	1024.93	–
298.15 K, x2 = 0	1290.8	32
298.15 K, x2 = 0.2042	–	24
298.15 K, x2 = 0.205	1283.85	–
298.15 K, x2 = 0.3952	–	18
298.15 K, x2 = 0.3983	1275.26	–
298.15 K, x2 = 0.5808	1261.85	12
298.15 K, x2 = 0.7565	–	8
298.15 K, x2 = 0.7573	1231.95	–
298.15 K, x2 = 0.842	1200.76	–
298.15 K, x2 = 0.9256	1137.65	4
298.15 K, x2 = 0.9667	1077.55	–
298.15 K, x2 = 0.9912	1022.15	–
308.15 K, x2 = 0	1282.85	23
308.15 K, x2 = 0.2042	–	17
308.15 K, x2 = 0.205	1275.92	–
308.15 K, x2 = 0.3952	–	14
308.15 K, x2 = 0.3983	1267.29	–
308.15 K, x2 = 0.5808	1253.77	9
308.15 K, x2 = 0.7565	–	6
308.15 K, x2 = 0.7573	1223.66	–
308.15 K, x2 = 0.842	1192.57	–
308.15 K, x2 = 0.9256	1130.4	3
308.15 K, x2 = 0.9667	1072.06	–
308.15 K, x2 = 0.9912	1018.5	–
318.15 K, x2 = 0	1274.95	17
318.15 K, x2 = 0.2042	–	13
318.15 K, x2 = 0.205	1268.04	–
318.15 K, x2 = 0.3952	–	10
318.15 K, x2 = 0.3983	1259.34	–
318.15 K, x2 = 0.5808	1245.67	8
318.15 K, x2 = 0.7565	–	5
318.15 K, x2 = 0.7573	1215.3	–
318.15 K, x2 = 0.842	1184.27	–
318.15 K, x2 = 0.9256	1122.93	3
318.15 K, x2 = 0.9667	1066.08	–
318.15 K, x2 = 0.9912	1014.11	–
328.15 K, x2 = 0	1267.12	13
328.15 K, x2 = 0.2042	–	10
328.15 K, x2 = 0.205	1260.21	–
328.15 K, x2 = 0.3952	–	8
328.15 K, x2 = 0.3983	1251.41	–
328.15 K, x2 = 0.5808	1237.55	6
328.15 K, x2 = 0.7565	–	5
328.15 K, x2 = 0.7573	1206.84	–
328.15 K, x2 = 0.842	1175.86	–
328.15 K, x2 = 0.9256	1115.2	3
328.15 K, x2 = 0.9667	1059.66	–
328.15 K, x2 = 0.9912	1009.07	–
338.15 K, x2 = 0	1259.35	10
338.15 K, x2 = 0.2042	–	8
338.15 K, x2 = 0.205	1252.42	–
338.15 K, x2 = 0.3952	–	7
338.15 K, x2 = 0.3983	1243.49	–
338.15 K, x2 = 0.5808	1229.41	6
338.15 K, x2 = 0.7565	–	4
338.15 K, x2 = 0.7573	1198.32	–
338.15 K, x2 = 0.842	1167.33	–
338.15 K, x2 = 0.9256	1107.28	2
338.15 K, x2 = 0.9667	1052.83	–
338.15 K, x2 = 0.9912	1002.87	–
348.15 K, x2 = 0	1251.63	9
348.15 K, x2 = 0.2042	–	7
348.15 K, x2 = 0.205	1244.66	–
348.15 K, x2 = 0.3952	–	6
348.15 K, x2 = 0.3983	1235.59	–
348.15 K, x2 = 0.5808	1221.23	5
348.15 K, x2 = 0.7565	–	4
348.15 K, x2 = 0.7573	1189.98	–
348.15 K, x2 = 0.842	1158.69	–
348.15 K, x2 = 0.9256	1099.05	2
348.15 K, x2 = 0.9667	1045.56	–
348.15 K, x2 = 0.9912	997.23	–
